From US10577610B2, “EpCAM aptamers and conjugates thereof” (Deakin University, priority 2015, dated 2020) come the findings set out here.

For data set [1], the system named is in vitro BBB model (bEnd.3 endothelial monolayer). Put plainly: Aptamer permeability across in vitro blood brain barrier model (HEY-bEnd.3 co-culture). The format is in vitro ADME, mouse. Conditions: 2 μM in upper compartment, three hours. As to the method:
In order to assess the ability of the TfR containing aptamers to pass through an endothelial cell monolayer via receptor mediated transport (RMT) an in vitro model of the BBB was produced as shown schematically in FIG. 1. Transwell inserts (polyethylene terephthalate (PET) with 0.4 μm diameter pores) within a 24-well plate (Corning) were incubated with 100 μL of 50% Collagen IV for 2 hours at 37° C. Flasks of bEnd.3 cells were trypsinised to generate a single-cell suspension, and counted using a haemocytometer and trypan blue to ensure that a sufficient proportion of cells were alive. These were then centrifuged and resuspended in media. Wells were filled with 800 μL of serum-free media and transwell inserts were placed on top. Cells were then seeded in 90 μL of serum-free media at a density of 1×10^6 cells/cm^2 and were allowed to incubate at 37° C. Cells were allowed to settle for 6 hours and then 60 μL of enhanced media (DMEM low glucose: Ham's F12 (1:1), (both serum-free) 550 nM hydrocortisone, 32 μM cAMP, 17.5 μM aminophylline, 1 μM retinoic acid, 5 μg/mL insulin, 2.75 μg/mL transferrin, 2.5 ng/mL sodium selenite, 100 ng/mL bFGF (basic fibroblast growth factor), 20 ng/mL EGF (epidermal growth factor)) (Wuest D M et al (2013) Journal of Neuroscience Methods 212(2):211-21) was added to the transwells. Media in both compartments were replaced the next day with enhanced media in order to supplement the growth of the monolayer.
HEY cells were subcultured and counted using a haemocytometer and trypan blue in order to assess the percentage of living cells. Subsequently, they were diluted in DMEM media at a concentration of 87 500 cells/mL. Media was removed from the bottom compartment of the in vitro BBB model and replaced with 800 μL of the HEY cell solution, seeding at 70 000 cells per well. These were allowed to incubate overnight. Next, media was removed from the upper compartment of the transwells and 100 μL of aptamer at a concentration of 2 μM was pipetted on top of the transwell membrane. […]

For the next data set, the target named is T1, mouse TfR (Mus musculus, UniProt Q62351).
T1 construct: bEnd.3 cells, mouse cells positive for TfR; host or cells: bEnd.3 mouse cerebral endothelial cells
As to the kind of experiment: Flow cytometry binding assay on bEnd.3 cells (TfR-positive). Conditions: bEnd.3 (TfR-positive) cells, n=3. On the procedure:
In order to determine the binding affinity (equilibrium dissociation constant KD) of the aptamers. Binding assays were conducted to measure the binding to native EpCAM protein expressed on the cell surface. The aptamers were incubated with the cells at concentrations ranging from 0 nM to 400 nM. These were subsequently analysed by flow cytometry. Aptamers were thawed from storage (-20° C.) prior to use. These were then diluted via serial dilutions with phosphate buffered saline (PBS) in order to achieve the desired concentrations. PBS was supplemented with a MgCl2 concentration appropriate for the aptamer (1 mM for anti-TfR aptamers; 5 mM for conjugate aptamers). […] Concurrently, subcultured cells were incubated in blocking buffer (PBS with 10% FCS, 1 mg/mL BSA, 0.1 mg/mL tRNA) for 30 minutes. Following centrifugation, blocking buffer was removed and cells were resuspended in binding buffer (PBS with 10% FCS, 1 mg/mL BSA, 0.1 mg/mL tRNA). Cells (50 μL) were then incubated with the aptamers (50 μL) for 30 minutes at 37° C. at a range of concentrations (0 nM, 20 nM, 40 nM, 60 nM, 80 nM, 100 nM, 200 nM, 400 nM). Following this, cells were washed in 100 μL PBS three times before final resuspension for flow cytometry. Aptamers were incubated with the chosen cell lines (bEnd.3 cells, mouse cells positive for TfR; HEY cells, human ovarian cancer cell line positive for EpCAM; and MOLT4 human cells negative for both TfR and EpCAM) at a range of concentrations. Aptamer-bound cells were analysed using a FACS Canto II flow cytometer (Becton Dickinson), counting 10,000 events for each sample, in order to determine the binding affinity of the aptamers. […] The value for the auto fluorescent 0 nM concentration was subtracted from the other figures to account for background fluorescence (Li N et al (2009) Journal of Proteome Research 8(5):2438-48). […] The binding affinities of aptamers TfR1, TfR2, […] determined semi-quantitatively via flow cytometry, using bEnd.3 mouse cerebral endothelial cells as a Tf R-positive cell line and MOLT4 acute lymphoblastic leukaemia cells-which express the human TfR, but not the mouse TfR (Sutherland R et al (1981) PNAS 78(7):4515-9)-as a negative control. Three independent binding assays were performed for each aptamer against each cell line. […] Three independent binding assays were performed for these aptamer against all three cell lines (bEnd.3, HEY and MOLT4).
For orientation: A flow cytometer gives signals particle by particle.

Several values for one entry are separate records, joined by “and”; a condition that tells them apart may be missing. Equal entries are not always repeated. [invdT] = inverted (3'-3') thymidine; {TYE665} = TYE665 fluorescent dye

T1 sequence (Q62351 whole entry): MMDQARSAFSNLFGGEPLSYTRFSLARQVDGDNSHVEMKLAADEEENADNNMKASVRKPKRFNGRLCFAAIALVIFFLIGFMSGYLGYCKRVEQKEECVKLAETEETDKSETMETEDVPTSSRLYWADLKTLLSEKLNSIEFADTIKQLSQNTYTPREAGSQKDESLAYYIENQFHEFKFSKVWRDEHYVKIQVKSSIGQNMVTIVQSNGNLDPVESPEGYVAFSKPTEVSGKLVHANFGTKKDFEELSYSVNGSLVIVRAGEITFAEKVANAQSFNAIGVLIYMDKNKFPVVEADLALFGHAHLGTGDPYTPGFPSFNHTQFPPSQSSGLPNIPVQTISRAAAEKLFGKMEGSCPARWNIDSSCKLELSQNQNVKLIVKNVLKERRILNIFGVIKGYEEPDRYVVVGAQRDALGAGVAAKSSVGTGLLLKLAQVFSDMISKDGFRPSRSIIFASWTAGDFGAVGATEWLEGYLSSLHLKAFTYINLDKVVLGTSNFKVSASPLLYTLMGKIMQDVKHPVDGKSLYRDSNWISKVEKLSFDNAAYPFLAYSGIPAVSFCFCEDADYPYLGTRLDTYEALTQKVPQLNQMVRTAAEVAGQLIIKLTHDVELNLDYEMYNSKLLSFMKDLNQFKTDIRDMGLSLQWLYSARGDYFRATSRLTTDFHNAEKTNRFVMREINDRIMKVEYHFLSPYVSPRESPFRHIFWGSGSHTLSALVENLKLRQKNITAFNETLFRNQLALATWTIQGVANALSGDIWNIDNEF

The term Kd denotes the free concentration of one partner at which half of the binding sites on the other are occupied at equilibrium, for simple one-to-one binding. Low readings indicate tighter binding, high ones weaker binding. As to “5′-GCGCGGTACCGCGCTAACGGAGGTTGCGTCCGT-3′ (GCGCGGTACCGCGCTAACGGAGGTTGCGTCCGN; listed as DNA, chemistry not given here) [Bi3]”, in data set [1], the “Internalisation into HEY cells in bottom compartment after incubation on in vitro BBB model” value was “observed to become internalised into the HEY cells”. In the data set with mouse TfR, this substance showed a dissociation constant (Kd) of 342 ± 78.3 nM.
The corresponding values for “Bi1: aptamer conjugate based on TfR1 and scrambled EpCAM binding loop, negative control, SEQ ID NO:8 (GCGCGTGCACGCGCTAACGGATTCCTTTTCCGN; listed as DNA, further chemistry not given here)” are “not observed inside HEY cells” and 1690 ± 1840 nM.
“TfR3: version of TfR1 with scrambled binding loop sequence, SEQ ID NO:6 (DNA GCGTGGTACCACGC; DNA, 5' {TYE665}, 3' [invdT], backbone not given here)” returned a Kd with mouse TfR of 366 nM.
For “5′-GCGCGGGCCCGCGCTAACGGAGGTTGCGTCCGT-3′ (GCGCGGGCCCGCGCTAACGGAGGTTGCGTCCGN; DNA sequence of aptamer conjugate Bi2; (33)..(33) n is t or 3′ inverted deoxythymidine (dT))”, the “Internalisation into HEY cells in bottom compartment after incubation on in vitro BBB model” value in data set [1] is “observed to become internalised into the HEY cells”. In addition, the Kd with mouse TfR was 306 nM and 305 nM.
